Experimental findings from patent US8168164B2, “Targeted conjugates and radiation” (Purdue Research Foundation, priority 2006, dated 2012) are described below.

Holding throughout (type): in vivo, mice
The subject of test [1] is M109 cells. Put plainly: Effect of ligand-immunogen conjugates in combination with radiation on tumor volume. How it is done: (§1) Six to eight-week old (˜20-22 grams) female Balb/c mice were immunized subcutaneously at multiple sites with fluorescein (FITC)-labeled keyhole limpet hemocyanin (KLH) and were injected with GPI-0100, a saponin adjuvant. After assuring that anti-FITC antibody titers were high in all mice (as evidenced by the results of ELISA assays of serum samples of the mice), each animal was injected subcutaneously in the shoulder with 1×10^6 M109 cells following the pre-immunization with FITC-KLH. M109 cells are a syngeneic lung cancer cell line that expresses high levels of the folate receptor. Cancer loci were then allowed to attach and grow. When the tumor size reached about 300 mm^2 (about 2 weeks post M109 cell injection), treatments were initiated (day 1).
The mice were divided into four groups (4 mice per group). One group was injected subcutaneously with phosphate-buffered saline (PBS). Two other groups were injected subcutaneously with 500 nmoles/kg of folate-FITC and 20,000 IU/dose of recombinant human IL-2 in a series of 5 daily injections for three weeks (5 days on and 2 days off). The mice were also injected subcutaneously with IFN-α at 25,000 IU/dose (3 times per week for 3 weeks). One of these groups also received a single dose of radiation of 3 Gy on day 1. The fourth group received only a single dose of radiation of 3 Gy on day 1. The radiation was performed with a device approved for human use and calibrated to give the desired radiation dose to mice.
The efficacy of these therapies were then evaluated by monitoring tumor volumes. Tumor volumes were calculated using the equation V=a×b^2/2, where “a” is the length of the tumor and “b” is the width expressed in millimeters. The tumors were measured using calipers.
The procedures were similar to those described in Example 3 except that the radiation was given in three doses of three Gy each on days 1, 5, and 12.

Test [2] concerns M109 cells. Description: Effect on non-irradiated tumors (tumor volume, two tumor sites). The note with it: folate-FITC. As for the experimental part:
as §1, with “each animal was injected subcutaneously in the shoulder with 1×10^6 M109 cells following” left out
[…] One group was injected subcutaneously with phosphate-buffered saline (PBS). Two other groups were injected subcutaneously with 500 nmoles/kg of folate-FITC and 20,000 IU/dose of recombinant human IL-2 in a series of 5 daily injections for three weeks (5 days on and 2 days off). The mice were also injected subcutaneously with IFN-α at 25,000 IU/dose (3 times per week for 3 weeks). […]
The efficacy of these therapies were then evaluated by monitoring tumor volumes. Tumor volumes were calculated using the equation V=a×b^2/2, where “a” is the length of the tumor and “b” is the width expressed in millimeters. The tumors were measured using calipers. […]

A further test has as its system M109 tumors. Description: Effect of ligand-immunogen conjugates in combination with taxol on tumor volume. The conditions noted are these: folate-FITC and cytokines with 3 doses of taxol (20 mg/kg, every other day) in place of radiation.

Each structure is given as a SMILES string.

Consider `Nc1nc2ncc(CNc3ccc(C(=O)NC(CCC(=O)NCCNC(=S)Nc4ccc(C(=O)O)c(-c5c6ccc(=O)cc-6oc6cc(O)ccc56)c4)C(=O)O)cc3)nc2c(=O)[nH]1` (stereo not drawn) [folate-FITC], for which the “effect on tumor volume (FIG. 1)” value in the test with M109 cells [1] (500 nmoles/kg folate-FITC + IL-2 20,000 IU/dose + IFN-α 25,000 IU/dose s.c., 3 weeks, single dose of radiation of 3 Gy on day 1, FITC-KLH immunized Balb/c mice) is recorded as “act synergistically with low dose radiation to eliminate tumors”. Besides, the “effect on tumor volume (FIG. 2)” value in the test on M109 cells [1] (folate-FITC plus IL-2 and IFN-α, radiation three doses of three Gy on days 1, 5, and 12) is given as “synergistic with low dose radiation to eliminate tumors”. The “mice tumor-free at the end of the assay” value with M109 cells [1] (folate-FITC plus IL-2 and IFN-α, radiation three doses of three Gy on days 1, 5, and 12, 4 mice per group) is on record as “Two out of the four mice”. In addition, the “mice completely tumor-free after treatment” value in the test on M109 cells [2] (cytokines and radiation (3 Gy days 1 and 5 on tail tumor only), 6 mice per group) was “Two out of six mice”. Besides, the “response of tumors on the same animal that were not irradiated (FIG. 4)” value in the test on M109 cells [2] (cytokines and radiation, tail tumor irradiated days 1 and 5 with 3 Gy per dose, neck tumor not irradiated) is listed as “improved response”. The “effect on tumor mass in combination with taxol (FIG. 5)” value in the test on M109 tumors is reported as “not synergistic with taxol”.
